US8987284B2, “Phosphorus containing quinazoline compounds and methods of use” (Newgen Therapeutics, Inc., priority 2009, dated 2015)

Key:
BT474 cells = test: Cell proliferation inhibition assay for BT474 (CCK-8); assay type: cell-based; settings: Homo sapiens, BT-474; 72 h, 8 points
Description: Human breast cancer BT474 cells was cultured in low glucose DMEM (Life Technologies 12320-032) containing 10% fetal bovine serum (FBS) at 37° C. in a humidified 10% CO2, 90% air incubator. Cells were harvested using trypsin/EDTA, counted using a haemocytometer, and plated 10000 cell/well in a 96-well clear tissue culture plate. The cells were incubated for 24 h at 37° C. to allow adherence. A serials of concentrations of each compound (ranging from 30 uM to […], 5-fold dilution) in 96-well plate, and incubated for 72 h. Each concentration was tested in triplicate wells. During the cell proliferation assay, BT474 cells were cultured in low-glucose DMEM containing 5% FBS, 50 ug/ml gentamicin, and 0.3% v/v DMSO. The culture medium was removed via aspiration, and the cell viability was detected by using CCK-8 cell proliferation kit.

EGFR kinase = biological target: T1, EGFR kinase (Homo sapiens, UniProt P00533); test: Kinase assay for EGFR (TR-FRET LanthaScreen); assay type: biochemical; settings: % inhibition at 100 nM or IC50 (nM)
T1 construct: purchased Invitrogen PV3872
Description: The extent to which the compounds of the present invention modulate EGFR kinase activity can be determined using time-resolved Fret (TR-FRET) assay (LanthaScreen® kinase activity assay, from Invitrogen). The assay employs EGFR kinase (PV3872, Invitrogen), Tb-Py20 antibody (PV3552, Invitrogen) and fluorescein-poly GT (PV3610, In vitrogen)
The assay is performed in a Black 384-well plate (available from Corning). EGFR kinase (is diluted in TR-FRET Dilution Buffer (PV3189, InVitrogen) at concentration of 0.4 ug/ml as stock solution, and then 2-fold serial diluted. Addition of 1 mM ATP initiated the reaction, and the reaction is incubated for 1 h reaction at room temperature. 10 μL of the Tb-antibody (from Invitrogen)+EDTA (from Invitrogen) solution prepared was added to each well of the assay plate and mix briefly, and incubated for 30 min. The signal is monitored by using M5 microplate reader (Ex=332 nm, Em=488 nm and 518 nm). Each compound is tested in duplicate wells. EGFR without compound is used as control. Staurosporine (available from Sigma) is used as positive control compound. Inhibition was calculated as percentage of the EGFR activity (without compound)

T1 sequence (P00533 25-1210): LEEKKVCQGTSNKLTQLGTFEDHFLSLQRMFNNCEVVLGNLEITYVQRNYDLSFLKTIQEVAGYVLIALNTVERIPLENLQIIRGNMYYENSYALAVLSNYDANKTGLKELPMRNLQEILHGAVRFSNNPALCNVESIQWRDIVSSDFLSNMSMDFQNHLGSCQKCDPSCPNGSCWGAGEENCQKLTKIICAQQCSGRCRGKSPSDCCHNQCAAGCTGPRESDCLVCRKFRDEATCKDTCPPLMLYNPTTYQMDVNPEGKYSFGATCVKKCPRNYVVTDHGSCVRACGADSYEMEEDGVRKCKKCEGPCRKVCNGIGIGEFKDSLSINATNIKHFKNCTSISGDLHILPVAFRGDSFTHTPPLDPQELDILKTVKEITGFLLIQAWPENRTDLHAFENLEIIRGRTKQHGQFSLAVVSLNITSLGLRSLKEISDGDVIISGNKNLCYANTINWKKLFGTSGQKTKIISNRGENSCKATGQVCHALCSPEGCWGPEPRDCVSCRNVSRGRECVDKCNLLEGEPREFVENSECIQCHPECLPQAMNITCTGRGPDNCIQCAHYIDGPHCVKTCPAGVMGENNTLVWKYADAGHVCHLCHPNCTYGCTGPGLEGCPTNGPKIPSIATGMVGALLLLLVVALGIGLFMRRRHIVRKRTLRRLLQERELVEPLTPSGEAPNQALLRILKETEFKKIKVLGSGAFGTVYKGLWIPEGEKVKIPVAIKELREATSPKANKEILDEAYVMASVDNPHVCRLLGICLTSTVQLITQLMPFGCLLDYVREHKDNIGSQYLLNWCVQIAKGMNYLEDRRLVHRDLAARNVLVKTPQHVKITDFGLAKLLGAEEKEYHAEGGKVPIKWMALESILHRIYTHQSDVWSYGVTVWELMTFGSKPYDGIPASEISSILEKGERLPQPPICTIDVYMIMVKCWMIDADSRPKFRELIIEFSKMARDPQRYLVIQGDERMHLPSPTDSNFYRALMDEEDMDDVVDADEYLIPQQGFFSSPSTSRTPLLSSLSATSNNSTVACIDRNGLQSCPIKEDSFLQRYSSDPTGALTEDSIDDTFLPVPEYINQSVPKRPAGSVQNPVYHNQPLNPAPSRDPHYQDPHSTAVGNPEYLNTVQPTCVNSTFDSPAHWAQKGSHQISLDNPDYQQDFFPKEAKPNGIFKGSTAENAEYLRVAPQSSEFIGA

| Compound | IC50 (BT474 cells) [nM] | EGFR inhibition inhibit % at 100 nM or IC50 (nM) (EGFR kinase) |
| --- | --- | --- |
| CP1(=O)CCN(Cc2ccc(-c3ccc4ncnc(Nc5ccc(OCc6cccc(F)c6)c(Cl)c5)c4c3)o2)CC1 [Example 1, N-(3-chloro-4-(3-fluorobenzyloxy)phenyl)-6-(5-((4-methyl-1,4-azaphosphino-1-yl)methyl)furan-2-yl)quinazolin-4-amine] | < 100 | ++ (>50% inhibition at 100 nM, or IC50 <100 nM for EGFR or ErbB2 kinases) |
| CP(C)(=O)CCNCc1ccc(-c2ccc3ncnc(Nc4ccc(OCc5cccc(F)c5)c(Cl)c4)c3c2)o1 [Example 2, 6-(5-((2-(dimethylphosphino)ethylaminoyl)methyl)furan-2-yl)-N-(4-(3-fluorobenzyloxy)-3-chlorophenyl)quinazolin-4-amine] | < 100 | ++ (>50% inhibition at 100 nM, or IC50 <100 nM for EGFR or ErbB2 kinases) |
| CP(C)(=O)CNCc1ccc(-c2ccc3ncnc(Nc4ccc(OCc5cccc(F)c5)c(Cl)c4)c3c2)o1 [Example 3, 6-(5-(((dimethylphosphinoyl)methylamino)methyl)furan-2-yl)-N-(4-(3-fluorobenzyloxy)-3-chlorophenyl)quinazolin-4-amine] | 100 to 1000 | ++ (>50% inhibition at 100 nM, or IC50 <100 nM for EGFR or ErbB2 kinases) |
| CP1(=O)CCN(Cc2ccc(-c3ccc4ncnc(Nc5ccc(OCc6ccccn6)c(Cl)c5)c4c3)o2)CC1 [Example 8, N-(3-chloro-4-(pyridin-2-ylmethoxy)phenyl)-6-(5-((4-methyl-1,4-azaphosphino-1-yl)methyl)furan-2-yl)quinazolin-4-amine] | < 100 | ++ (>50% inhibition at 100 nM, or IC50 <100 nM for EGFR or ErbB2 kinases) |
| Cc1cccc(COc2ccc(Nc3ncnc4ccc(-c5ccc(CN6CCP(C)(=O)CC6)o5)cc34)cc2Cl)n1 [Example 9, N-(3-chloro-4-((6-methylpyridin-2-yl)methoxy)phenyl)-6-(5-((4-methyl-1,4-azaphosphino-1-yl)methyl)furan-2-yl)quinazolin-4-amine] | 100 to 1000 | + (between 20% to 50% inhibition at 100 nM, or IC50 between 100 and 1000 nM) |
| CP(C)(=O)CN1CCN(Cc2ccc(-c3ccc4ncnc(Nc5ccc(OCc6cccc(F)c6)c(Cl)c5)c4c3)o2)CC1 [Example 13, N-(4-(3-fluorobenzyloxy)-3-chlorophenyl)-6-(5-((4-((dimethylphosphinoyl)-methyl)piperazin-1-yl)methyl)furan-2-yl)quinazolin-4-amine] | 100 to 1000 | ++ (>50% inhibition at 100 nM, or IC50 <100 nM for EGFR or ErbB2 kinases) |
| CP1(=O)CCN(Cc2ccc(-c3ccc4ncnc(Nc5ccc(OCc6cccc[n+]6[O-])c(Cl)c5)c4c3)o2)CC1 [Example 15, 2-((2-chloro-4-(6-(5-((4-methyl-1,4-azaphosphino-1-yl)methyl)furan-2-yl)quinazolin-4-ylamino)phenoxy)methyl)pyridine 1-oxide] | < 100 | ++ (>50% inhibition at 100 nM, or IC50 <100 nM for EGFR or ErbB2 kinases) |
| CCOP1(=O)CCN(Cc2ccc(-c3ccc4ncnc(Nc5ccc(OCc6cccc(F)c6)c(Cl)c5)c4c3)o2)CC1 [Example 17, N-(3-chloro-4-(3-fluorobenzyloxy)phenyl)-6-(5-((4-ethoxy-1,4-azaphosphino-1-yl)methyl)furan-2-yl)quinazolin-4-amine] | < 100 | ++ (>50% inhibition at 100 nM, or IC50 <100 nM for EGFR or ErbB2 kinases) |
| CP1(=O)CCN(Cc2ccc(-c3ccc4ncnc(Nc5ccc(Br)cc5F)c4c3)o2)CC1 [Example 20, N-(4-Bromo-2-fluorophenyl)-6-(5-((4-methyl-1,4-azaphosphino-1-yl)methyl)furan-2-yl)quinazolin-4-amine] |  | + (between 20% to 50% inhibition at 100 nM, or IC50 between 100 and 1000 nM) |
| CP1(=O)CCN(Cc2ccc(-c3ccc4ncnc(Nc5ccc(Br)c(Cl)c5F)c4c3)o2)CC1 [Example 21, N-(4-Bromo-3-chloro-2-fluorophenyl)-6-(5-((4-methyl-1,4-azaphosphino-1-yl)methyl)furan-2-yl)quinazolin-4-amine] |  | ++ (>50% inhibition at 100 nM, or IC50 <100 nM for EGFR or ErbB2 kinases) |
| CP1(=O)CCN(Cc2ccc(-c3ccc4ncnc(Nc5ccc(OCc6cnccn6)c(Cl)c5)c4c3)o2)CC1 [Example 22, N-(3-chloro-4-(pyrazin-2-ylmethoxy)phenyl)-6-(5-((4-methyl-1,4-azaphosphino-1-yl)methyl)furan-2-yl)quinazolin-4-amine] |  | ++ (>50% inhibition at 100 nM, or IC50 <100 nM for EGFR or ErbB2 kinases) |
| C#Cc1cc(Nc2ncnc3ccc(-c4ccc(CN5CCP(C)(=O)CC5)o4)cc23)ccc1OCc1cccc(F)c1 [Example 23, N-(4-(3-fluorobenzyloxy)-3-ethynylphenyl)-6-(5-((4-methyl-1,4-azaphosphino-1-yl)methyl)furan-2-yl)quinazolin-4-amine] | 100 to 1000 | ++ (>50% inhibition at 100 nM, or IC50 <100 nM for EGFR or ErbB2 kinases) |
| Cc1cccc(COc2ccc(Nc3ncnc4ccc(-c5ccc(CN6CCP(C)(=O)CC6)o5)cc34)cc2Cl)[n+]1[O-] [Example 24, 2-((2-chloro-4-(6-(5-((4-methyl-1,4-azaphosphino-1-yl)methyl)furan-2-yl)quinazolin-4-ylamino)phenoxy)methyl)-6-methylpyridine 1-oxide] | 100 to 1000 | ++ (>50% inhibition at 100 nM, or IC50 <100 nM for EGFR or ErbB2 kinases) |
| CP(C)(=O)CCNCc1ccc(-c2ccc3ncnc(Nc4ccc5c(cnn5Cc5cccc(F)c5)c4)c3c2)o1 [Example 25, 6-(5-((2-(dimethylphosphinoyl)ethylamino)methyl)furan-2-yl)-N-(1-(3-fluorobenzyl)-1H-indazol-5-yl)quinazolin-4-amine] | 100 to 1000 | ++ (>50% inhibition at 100 nM, or IC50 <100 nM for EGFR or ErbB2 kinases) |
| CCN(CCP(C)(C)=O)Cc1ccc(-c2ccc3ncnc(Nc4ccc5c(cnn5Cc5cccc(F)c5)c4)c3c2)o1 [Example 26] | 100 to 1000 | ++ (>50% inhibition at 100 nM, or IC50 <100 nM for EGFR or ErbB2 kinases) |
| CP(C)(=O)CCN(CCO)Cc1ccc(-c2ccc3ncnc(Nc4ccc5c(cnn5Cc5cccc(F)c5)c4)c3c2)o1 [Example 27, 2-(N-((5-(4-(1-(3-fluorobenzyl)-1H-indazol-5-ylamino)quinazolin-6-yl)furan-2-yl)methyl)-N-(2-(dimethylphosphinoyl)ethyl)amino)ethanol] | < 100 | ++ (>50% inhibition at 100 nM, or IC50 <100 nM for EGFR or ErbB2 kinases) |
| CP1(=O)CCN(CC#Cc2ccc3ncnc(Nc4ccc5c(cnn5Cc5cccc(F)c5)c4)c3c2)CC1 [Example 28, N-(1-(3-fluorobenzyl)-1H-indazol-5-yl)-6-(3-(4-methyl-1,4-azaphosphino-1-yl)prop-1-ynyl)quinazolin-4-amine] | 100 to 1000 | ++ (>50% inhibition at 100 nM, or IC50 <100 nM for EGFR or ErbB2 kinases) |
